Measured values taken from patent publication US11547696B2, “Methods and compositions for treatment of myelodysplastic syndromes and/or acute myeloid leukemias” (Children's Hospital Medical Center, priority 2016, dated 2023).
Entries after “also recorded” stand apart in the source; their conditions may differ. Read-outs that look alike come from different tables or passages of the source.

Columns and labels:
AML/MDS cells [1] = experiment: Cell death of AML/MDS cells; assay type: cell-based
TRAF6 = TRAF6 protein expression; assay type: cell-based; conditions: rescued by inhibition of the proteasome
MDSL cells [2] = experiment: RNA sequencing / expression in MDSL cells; assay type: cell-based
Source text: (§1) To identify the molecular basis of UBE2N inhibition, Applicant performed a global ubiquitin screen for changes in ubiquitinated substrates and gene expression profiling by RNA sequencing. For the ubiquitin screen, K63 ubiquinated proteins were immunopreciptated from MDSL cells upon pharmacologic inhibition of UBE2N, followed by mass spectrometry analysis.

MDS/AML cells [3] = experiment: Cellular metabolic activity of MDS/AML cells; assay type: cell-based
AML/MDS cells [4] = experiment: Proliferation of AML/MDS cells; assay type: cell-based
MDSL cells [5] = experiment: Global ubiquitin screen in MDSL cells; assay type: cell-based
Source text: as §1

AML/MDS cells [6] = experiment: DNA damage in AML/MDS cells; assay type: cell-based
AML/MDS cells [7] = experiment: Clonogenic potential of AML/MDS cells; assay type: cell-based
[8] = system: NFkB and interferon signaling in AML/MDS cells; experiment: NFkB and interferon signaling in AML/MDS cells; assay type: cell-based; conditions: for NFkB signaling: AML cells
normal HSPC = experiment: Clonogenic capacity of normal HSPC; assay type: cell-based
AML/MDS cells [9] = experiment: Cell cycle of AML/MDS cells; assay type: cell-based
[10] = system: TLR mediated NFkB activity; experiment: TLR mediated NFkB activity; assay type: cell-based; conditions: for TLR mediated NFkB signaling: AML cells
UBE2N [11] = target: T1, UBE2N (Homo sapiens, UniProt P61088); experiment: Direct binding to UBE2N (Michael-Addition reaction); conditions: through a Michael-Addition reaction
T1 construct: endogenous in cells
T1 sequence (P61088 1-152): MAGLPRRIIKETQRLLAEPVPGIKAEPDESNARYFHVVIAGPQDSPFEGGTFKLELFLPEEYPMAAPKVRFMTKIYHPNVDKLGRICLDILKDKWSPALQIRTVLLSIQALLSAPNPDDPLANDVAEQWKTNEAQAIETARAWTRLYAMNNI

MOLM-13 and THP-1 cells = experiment: DNA damage in MOLM-13 and THP-1 cells; assay type: cell-based
UBE2N [12] = target: T1, UBE2N; experiment: UBE2N ubiquitination at Lysine (K)-92
DDB1 = DDB1 ubiquitination following UBE2N inhibition; assay type: cell-based; conditions: following inhibition of UBE2N
Source text: as §1
(§2) One substrate identified in NSC697923-treated MDSL cells by the ubiquitin screen is DDB1, a component of the CUL4-CRBN E3 ligase complex targeted by Lenalidomide (LEN). […] LEN has shown encouraging results in del(5q) MDS patients (“deletion 5q (del 5q) MDS” in which part of chromosome 5 is missing), but its effects are limited in other cytogenetic subtypes of MDS or AML. Therefore, the identification of molecular targets that can enhance or extend the use of LEN in a broader spectrum of patients is desired Applicant explored the possibility of a cooperative effect of LEN and NSC697923 on MDS/AML cells. […] As such, UBE2N is a promising target for extending the use of LEN to other subtypes of MDS/AML.

UBE2N active site mutant = experiment: Inhibition of NFkB with UBE2N active site mutant; assay type: cell-based
AML cells = experiment: Viability of AML cells; assay type: cell-based
primary MDS stem cells = experiment: Clonogenic potential of primary MDS stem cells; assay type: cell-based
MDS/AML cells [13] = experiment: Targeting MDS/AML cells in vivo
[14] = system: MDS/AML cell lines and patient samples; experiment: Combination with lenalidomide on MDS/AML cell lines and patient samples in vitro; assay type: cell-based; conditions: MDS/AML cells
Source text: as §2

normal CD34+ cells = experiment: Function of normal CD34+ cells in the presence of lenalidomide; assay type: cell-based

Cc1ccc(S(=O)(=O)c2ccc([N+](=O)[O-])o2)cc1 [NSC697923]
cell death (AML/MDS cells [1]): increased cell death | cell death (AML/MDS cells [1]; listed as NSC23): cell death | TRAF6 protein expression (TRAF6): dramatic loss of TRAF6 protein expression | expression of APC/CDC20 substrates (i.e., cyclin B1) (MDSL cells [2]): increased expression of APC/CDC20 substrates | gene expression changes by RNA sequencing (MDSL cells [2]; MDSL cells): expression changes in genes involved in mRNA processing, cell cycle, and glycolysis | cellular metabolic activity (MDS/AML cells [3]): reduced the cellular metabolic activity | proliferation (AML/MDS cells [4]; AML/MDS cells): reduces proliferation | protein ubiquination (MDSL cells [5]): Differential protein ubiquination | DNA damage (AML/MDS cells [6]): induces DNA damage | clonogenic potential (AML/MDS cells [7]; AML/MDS cells): reduces proliferation and clonogenic potential | clonogenic capacity (AML/MDS cells [7]; MDSL/AML cell lines and primary cells): reduced the clonogenic capacity | NFkB and interferon signaling ([8]; AML/MDS cells, listed as NSC23): inhibits NKkB and interferon signaling; also recorded: inhibits NFkB and interferon signaling | effect on normal HSPC (clonogenic capacity) (normal HSPC): not significantly affecting normal HSPC | cell cycle arrest (AML/MDS cells [9]): induced a G2/M cell cycle arrest | cell cycle arrest (AML/MDS cells [9]; listed as NSC23): induces cell cycle arrest in mitosis | TLR mediated NFkB activity [10]: inhibits TLR mediated NFkB activity

Cc1ccc(S(=O)(=O)/C=C/C#N)cc1 [UC64]
proliferation (AML/MDS cells [4]; AML cells): reduces their proliferation | direct binding to UBE2N (UBE2N [11]): directly bind UBE2N | DNA damage (MOLM-13 and THP-1 cells): does not cause DNA damage | clonogenic potential (AML/MDS cells [7]; AML cells): reduces their clonogenic potential | UBE2N ubiquination at Lysine (K)-92 (UBE2N [12]): reduces UBE2N ubiquination at Lysine (K)-92 | NFkB signaling [8]: inhibits NFkB signaling | DDB1 ubiquination (DDB1): differentially ubiquinated | sensitivity of UBE2N active site mutant to inhibition of NFkB (UBE2N active site mutant): less sensitive | TLR mediated NFkB signaling [10]: inhibits TLR mediated NFkB signaling | viability (AML cells): reduces their viability

Cc1ccc(S(=O)(=O)c2ccc([N+](=O)[O-])o2)cc1 [UC65]
proliferation (AML/MDS cells [4]; AML cells): reduces their proliferation | clonogenic potential (primary MDS stem cells): reduces their clonogenic potential | effectiveness against MDS/AML cells in vivo (MDS/AML cells [13]): effective against targeting MDS/AML cells in vivo | direct binding to UBE2N (UBE2N [11]): directly bind UBE2N | DNA damage (MOLM-13 and THP-1 cells): does not cause DNA damage | clonogenic potential (AML/MDS cells [7]; AML cells): reduces their clonogenic potential | UBE2N ubiquination at Lysine (K)-92 (UBE2N [12]): reduces UBE2N ubiquination at Lysine (K)-92 | NFkB signaling [8]: inhibits NFkB signaling | DDB1 ubiquination (DDB1): differentially ubiquinated | sensitivity of UBE2N active site mutant to inhibition of NFkB (UBE2N active site mutant): less sensitive | TLR mediated NFkB signaling [10]: inhibits TLR mediated NFkB signaling | viability (AML cells): reduces their viability

Nc1cccc2c1CN(C1CCC(=O)NC1=O)C2=O (stereo not shown) [lenalidomide]
cytotoxic effects of lenalidomide with UBE2N inhibition [14]: enhances the cytotoxic effects | function of normal CD34+ cells with UBE2N inhibition in the presence of lenalidomide (normal CD34+ cells): does not affect the function of normal CD34+ cells
